Test results taken from patent publication US20230338378A1, “Methods of Administering Myosin Inhibitors” (MYOKARDIA, INC., priority 2022, published 2023).
Where two headings read alike, the source gives them in different places.

Tests used:
[1] = Clinical pharmacokinetics of mavacamten; type: in vivo, human; settings: for half-life: plasma, read-out: terminal half-life (converted)
Plasma protein binding = type: in vitro ADME
CYP3A4 [2] = target: T1, CYP3A4 (Homo sapiens, UniProt P08684); test: Metabolism through CYP enzymes
T1 sequence (P08684 whole entry): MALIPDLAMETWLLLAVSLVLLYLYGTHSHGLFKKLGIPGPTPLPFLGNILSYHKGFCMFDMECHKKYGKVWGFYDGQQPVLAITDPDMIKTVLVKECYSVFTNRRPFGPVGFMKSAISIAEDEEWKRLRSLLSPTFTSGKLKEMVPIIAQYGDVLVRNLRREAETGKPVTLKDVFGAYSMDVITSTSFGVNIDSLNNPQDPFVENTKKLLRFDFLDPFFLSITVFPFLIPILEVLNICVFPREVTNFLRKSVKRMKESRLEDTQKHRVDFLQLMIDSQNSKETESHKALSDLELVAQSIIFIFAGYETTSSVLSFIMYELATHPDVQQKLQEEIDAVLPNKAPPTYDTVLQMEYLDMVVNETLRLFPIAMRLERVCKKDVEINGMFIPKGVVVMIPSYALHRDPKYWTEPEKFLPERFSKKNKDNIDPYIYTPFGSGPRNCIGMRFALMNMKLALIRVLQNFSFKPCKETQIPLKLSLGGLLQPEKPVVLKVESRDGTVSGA

CYP2C9 [3] = target: T2, CYP2C9 (Homo sapiens, UniProt P11712); test: Metabolism through CYP enzymes
T2 sequence (P11712 whole entry): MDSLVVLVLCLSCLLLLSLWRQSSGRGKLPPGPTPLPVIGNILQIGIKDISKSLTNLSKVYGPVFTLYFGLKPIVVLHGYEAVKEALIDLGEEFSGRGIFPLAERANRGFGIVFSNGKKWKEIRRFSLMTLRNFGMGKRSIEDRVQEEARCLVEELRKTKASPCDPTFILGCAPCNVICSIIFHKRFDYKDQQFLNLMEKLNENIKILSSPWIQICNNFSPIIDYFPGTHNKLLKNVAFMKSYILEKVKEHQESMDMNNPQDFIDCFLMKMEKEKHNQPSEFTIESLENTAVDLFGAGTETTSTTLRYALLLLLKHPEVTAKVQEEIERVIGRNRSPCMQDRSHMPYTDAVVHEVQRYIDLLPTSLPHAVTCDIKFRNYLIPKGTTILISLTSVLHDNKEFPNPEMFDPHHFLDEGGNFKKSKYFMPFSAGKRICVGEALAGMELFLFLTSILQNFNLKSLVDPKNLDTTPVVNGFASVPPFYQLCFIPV

CYP1A2 = CYP1A2 (Homo sapiens, UniProt P05177); test: In vitro CYP inhibition; type: in vitro ADME; settings: In Vitro Studies
CYP2C8 = CYP2C8 (Homo sapiens, UniProt P10632); test: In vitro CYP inhibition; type: in vitro ADME; settings: In Vitro Studies
Chain of CYP2C8 (P10632 whole entry): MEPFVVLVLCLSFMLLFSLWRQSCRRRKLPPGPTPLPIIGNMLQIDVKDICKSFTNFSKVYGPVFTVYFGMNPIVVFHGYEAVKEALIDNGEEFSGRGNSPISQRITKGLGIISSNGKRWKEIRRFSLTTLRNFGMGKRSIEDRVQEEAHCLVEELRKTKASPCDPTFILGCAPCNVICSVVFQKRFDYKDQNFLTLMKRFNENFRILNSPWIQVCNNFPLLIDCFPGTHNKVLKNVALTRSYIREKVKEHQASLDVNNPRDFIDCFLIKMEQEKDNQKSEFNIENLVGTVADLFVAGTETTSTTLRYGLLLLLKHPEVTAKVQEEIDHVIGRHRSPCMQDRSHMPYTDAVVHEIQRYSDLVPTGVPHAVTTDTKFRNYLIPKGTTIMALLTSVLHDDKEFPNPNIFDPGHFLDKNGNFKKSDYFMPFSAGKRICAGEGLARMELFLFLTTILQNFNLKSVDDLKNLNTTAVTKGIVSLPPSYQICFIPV

CYP2D6 = CYP2D6 (Homo sapiens, UniProt P10635); test: In vitro CYP inhibition; type: in vitro ADME; settings: In Vitro Studies; clinically relevant concentrations
Chain of CYP2D6 (P10635 whole entry): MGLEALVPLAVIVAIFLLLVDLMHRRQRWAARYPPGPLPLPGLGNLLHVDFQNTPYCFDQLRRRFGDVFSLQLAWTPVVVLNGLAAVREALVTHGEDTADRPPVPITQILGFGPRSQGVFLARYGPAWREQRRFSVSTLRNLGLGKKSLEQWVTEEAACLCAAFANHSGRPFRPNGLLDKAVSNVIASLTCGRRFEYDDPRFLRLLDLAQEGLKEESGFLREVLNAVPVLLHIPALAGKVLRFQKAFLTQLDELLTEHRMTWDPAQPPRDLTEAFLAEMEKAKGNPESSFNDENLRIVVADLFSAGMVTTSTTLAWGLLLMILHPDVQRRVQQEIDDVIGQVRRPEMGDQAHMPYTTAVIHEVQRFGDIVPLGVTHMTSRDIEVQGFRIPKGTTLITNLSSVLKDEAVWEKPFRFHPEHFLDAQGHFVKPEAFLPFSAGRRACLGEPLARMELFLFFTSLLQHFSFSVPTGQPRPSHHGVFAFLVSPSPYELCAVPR

CYP2C9 [4] = target: T2, CYP2C9; test: In vitro CYP inhibition; type: in vitro ADME; settings: In Vitro Studies; clinically relevant concentrations
CYP2C19 [5] = target: T3, CYP2C19 (Homo sapiens, UniProt P33261); test: In vitro CYP inhibition; type: in vitro ADME; settings: In Vitro Studies; clinically relevant concentrations
T3 sequence (P33261 whole entry): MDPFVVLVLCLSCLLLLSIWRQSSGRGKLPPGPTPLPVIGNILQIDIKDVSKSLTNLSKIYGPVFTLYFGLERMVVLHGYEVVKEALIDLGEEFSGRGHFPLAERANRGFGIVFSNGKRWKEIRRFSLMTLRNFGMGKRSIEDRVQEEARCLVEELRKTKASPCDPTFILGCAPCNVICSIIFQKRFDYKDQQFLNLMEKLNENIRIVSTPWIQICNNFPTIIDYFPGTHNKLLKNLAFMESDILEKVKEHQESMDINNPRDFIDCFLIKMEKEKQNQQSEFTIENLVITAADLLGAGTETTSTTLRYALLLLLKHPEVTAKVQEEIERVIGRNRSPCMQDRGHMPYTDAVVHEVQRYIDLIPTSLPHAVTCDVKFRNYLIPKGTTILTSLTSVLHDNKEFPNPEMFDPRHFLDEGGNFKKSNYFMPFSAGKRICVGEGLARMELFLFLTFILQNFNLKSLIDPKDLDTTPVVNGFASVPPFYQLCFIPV

P-gp = P-gp (Homo sapiens, UniProt P08183); test: In vitro transporter inhibition; type: in vitro ADME; settings: In Vitro Studies
BSEP = BSEP (Homo sapiens, UniProt O95342); test: In vitro transporter inhibition; type: in vitro ADME; settings: In Vitro Studies
Chain of BSEP (O95342 whole entry): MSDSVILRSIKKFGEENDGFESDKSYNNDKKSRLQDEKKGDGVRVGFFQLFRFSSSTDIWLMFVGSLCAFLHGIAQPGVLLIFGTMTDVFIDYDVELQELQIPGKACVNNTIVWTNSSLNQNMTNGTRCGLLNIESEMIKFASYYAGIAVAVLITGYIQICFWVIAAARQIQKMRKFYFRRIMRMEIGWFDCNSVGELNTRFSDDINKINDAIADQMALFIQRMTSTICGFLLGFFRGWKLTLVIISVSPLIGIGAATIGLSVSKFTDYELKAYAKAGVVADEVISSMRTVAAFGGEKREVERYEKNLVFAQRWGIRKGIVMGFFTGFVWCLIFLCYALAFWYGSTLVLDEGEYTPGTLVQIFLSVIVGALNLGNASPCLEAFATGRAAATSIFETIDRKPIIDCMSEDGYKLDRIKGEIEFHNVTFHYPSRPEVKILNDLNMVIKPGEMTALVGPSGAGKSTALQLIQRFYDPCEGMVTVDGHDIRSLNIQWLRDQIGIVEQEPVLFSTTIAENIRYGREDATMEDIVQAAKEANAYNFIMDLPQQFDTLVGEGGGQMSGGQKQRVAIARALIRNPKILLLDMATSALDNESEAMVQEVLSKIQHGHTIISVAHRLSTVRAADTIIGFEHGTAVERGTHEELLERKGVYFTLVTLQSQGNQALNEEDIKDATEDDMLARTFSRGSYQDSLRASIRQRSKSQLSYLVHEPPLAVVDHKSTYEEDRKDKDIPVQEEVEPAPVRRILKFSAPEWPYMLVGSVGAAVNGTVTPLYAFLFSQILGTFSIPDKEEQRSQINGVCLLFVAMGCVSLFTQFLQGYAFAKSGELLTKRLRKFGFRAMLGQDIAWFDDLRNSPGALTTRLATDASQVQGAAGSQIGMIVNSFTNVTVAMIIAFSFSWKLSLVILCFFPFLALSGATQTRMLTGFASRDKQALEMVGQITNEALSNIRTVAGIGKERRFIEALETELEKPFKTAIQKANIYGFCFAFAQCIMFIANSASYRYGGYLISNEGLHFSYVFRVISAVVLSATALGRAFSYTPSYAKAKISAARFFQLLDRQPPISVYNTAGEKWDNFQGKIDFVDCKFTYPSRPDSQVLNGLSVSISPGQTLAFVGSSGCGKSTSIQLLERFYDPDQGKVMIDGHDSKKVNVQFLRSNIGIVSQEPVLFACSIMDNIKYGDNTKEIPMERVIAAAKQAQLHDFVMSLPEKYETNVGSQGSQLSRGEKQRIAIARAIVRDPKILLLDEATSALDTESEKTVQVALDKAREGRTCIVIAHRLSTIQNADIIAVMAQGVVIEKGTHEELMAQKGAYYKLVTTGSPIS

MATE1 = MATE1 (Homo sapiens, UniProt Q96FL8); test: In vitro transporter inhibition; type: in vitro ADME; settings: In Vitro Studies
Chain of MATE1 (Q96FL8 whole entry): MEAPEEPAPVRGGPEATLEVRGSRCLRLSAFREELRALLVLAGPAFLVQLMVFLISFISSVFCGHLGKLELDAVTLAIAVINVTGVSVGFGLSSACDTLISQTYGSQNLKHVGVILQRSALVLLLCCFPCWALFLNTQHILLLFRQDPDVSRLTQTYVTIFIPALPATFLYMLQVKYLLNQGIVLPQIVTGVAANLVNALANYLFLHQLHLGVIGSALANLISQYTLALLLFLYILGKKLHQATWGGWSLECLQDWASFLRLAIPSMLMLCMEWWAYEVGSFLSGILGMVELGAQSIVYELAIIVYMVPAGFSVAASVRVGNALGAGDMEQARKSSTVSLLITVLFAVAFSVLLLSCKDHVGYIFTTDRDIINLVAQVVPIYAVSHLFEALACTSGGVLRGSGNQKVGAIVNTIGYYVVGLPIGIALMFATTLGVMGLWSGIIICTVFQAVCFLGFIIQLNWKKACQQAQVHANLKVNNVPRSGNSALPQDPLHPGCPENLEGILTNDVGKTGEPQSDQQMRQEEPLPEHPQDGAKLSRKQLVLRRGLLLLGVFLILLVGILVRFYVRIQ

MATE2-K = MATE2-K (Homo sapiens, UniProt Q86VL8); test: In vitro transporter inhibition; type: in vitro ADME; settings: In Vitro Studies
Chain of MATE2-K (Q86VL8 1-566 isoform Q86VL8-3): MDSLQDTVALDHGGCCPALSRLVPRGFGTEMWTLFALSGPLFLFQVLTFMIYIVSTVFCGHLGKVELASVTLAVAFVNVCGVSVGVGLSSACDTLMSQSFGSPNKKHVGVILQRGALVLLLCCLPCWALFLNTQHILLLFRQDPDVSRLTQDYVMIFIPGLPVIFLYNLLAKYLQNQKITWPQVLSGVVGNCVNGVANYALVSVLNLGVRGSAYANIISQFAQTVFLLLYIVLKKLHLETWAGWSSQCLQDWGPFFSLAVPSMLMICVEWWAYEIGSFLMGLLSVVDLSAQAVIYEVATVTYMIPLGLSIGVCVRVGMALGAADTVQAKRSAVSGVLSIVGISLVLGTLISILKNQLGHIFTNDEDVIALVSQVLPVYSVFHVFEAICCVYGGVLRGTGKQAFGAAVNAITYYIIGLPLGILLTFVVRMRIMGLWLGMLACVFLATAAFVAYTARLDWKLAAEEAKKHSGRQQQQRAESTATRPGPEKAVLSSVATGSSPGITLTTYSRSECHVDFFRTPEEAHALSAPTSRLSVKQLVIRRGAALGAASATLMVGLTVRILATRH

[6] = system: organic anion transporting polypeptides (OATPs); test: In vitro transporter inhibition; type: in vitro ADME; settings: In Vitro Studies
[7] = system: organic anion transporters (OATs); test: In vitro transporter inhibition; type: in vitro ADME; settings: In Vitro Studies
pregnant rats [8] = test: Embryo-fetal development study in pregnant rats; type: in vivo, rat
Text: Plasma exposure (based on area under the concentration-time curve or AUC) at the no-effect dose for embryo-fetal development in rats is 0.3 times the exposure in humans at the MRHD.

pregnant rabbits = test: Embryo-fetal development study in pregnant rabbits; type: in vivo, rabbit
Method: Visceral findings consisted of malformations of the great vessels (dilatation of pulmonary trunk and/or aortic arch). Skeletal malformations consisted of higher incidences of fused sternebrae at ≥1.2 mg/kg/day. Plasma exposure (AUC) at the no-effect dose for embryo-fetal development in rabbits is 0.4 times the exposure in humans at the MRHD.

pregnant rats [9] = test: Pre/postnatal development study in rats; type: in vivo, rat
Method: In a pre/postnatal development study, mavacamten was administered orally to pregnant rats (0.3, to 1.5 mg/kg/day) from gestation Day 6 to lactation/post-partum Day 20.

[10] = system: bacterial reverse mutation; test: Bacterial reverse mutation test (Ames test); type: cell-based
[11] = Human experience of overdose; type: in vivo
Method: (§1) Human experience of overdose with MAVACAMTEN is limited. MAVACAMTEN has been given as a single dose of up to 144 mg in patients with HCM. […] In healthy subjects, doses of up to 25 mg have been administered for up to 25 days, with 3 of 8 participants treated at the 25 mg dose level experiencing 20% or greater reductions in LVEF. An infant death was reported after accidental ingestion of three 15 mg capsules.

healthy subjects = test: Doses of up to 25 mg for up to 25 days in healthy subjects; type: in vivo; settings: 25 mg dose level for up to 25 days
Method: as §1

Solubility = type: physicochemical
CYP2C19, CYP3A4 = test: Established and Potentially Significant Pharmacokinetic Drug Interactions with MAVACAMTEN (Table 1); settings: Concomitant use with a moderate to strong CYP2C19 inducer or a moderate to strong CYP3A4 inducer
CYP2C19 [12] = target: T3, CYP2C19; test: Concomitant use with weak CYP2C19 inhibitor omeprazole; type: in vivo; parameters: Mavacamten is hepatically metabolized predominantly via CYP2C19 (74%), CYP3A4 (18%) and CYP2C9 (8%); from tissue; host or cells: liver of human subjects in vivo, or a Simcyp virtual population; settings: mavacamten 15 mg with omeprazole 20 mg once daily; healthy CYP2C19 NMs and RMs
CYP3A4 [13] = target: T1, CYP3A4; test: Concomitant use with moderate CYP3A4 inhibitor verapamil; type: in vivo; parameters: Mavacamten is hepatically metabolized predominantly via CYP2C19 (74%), CYP3A4 (18%) and CYP2C9 (8%); from tissue; host or cells: liver of human subjects in vivo, or a Simcyp virtual population; settings: mavacamten 25 mg with verapamil sustained release 240 mg; CYP2C19 IMs and NMs

Structure (SMILES): CC(C)n1c(=O)cc(N[C@@H](C)c2ccccc2)[nH]c1=O [mavacamten, (S)-3-Isopropyl-6-((1-phenylethyl)amino)pyrimidine-2,4(1H,3H)-dione]
- accumulation ratio for AUC ([1]; CYP2C19 NMs): about 7 fold
- accumulation ratio for Cmax ([1]; CYP2C19 NMs): about 2 fold
- pharmacokinetics with a high fat meal ([1]; Effect of Food): No clinically significant differences
- pharmacokinetics by age (18-82 years), sex, race, ethnicity, or mild to moderate renal impairment ([1]; Specific Populations): No clinically significant differences
- Tmax ([1]; human, in vivo, oral, read-out: time to maximum concentration (Tmax)): 1 h
- bioavailability ([1]; human, in vivo, po, read-out: estimated oral bioavailability): ≥ 85%
- half-life ([1]; human, oral, CYP2C19 normal metabolizers (NMs)): 144 to 216 h
- half-life ([1]; human, oral, CYP2C19 poor metabolizers (PMs)): 552 h
- exposure vs dose ([1]; multiple once-daily doses of 1 mg to 15 mg): increases generally dose proportionally
- higher exposures in patients with HCM compared to healthy subjects ([1]; same dose level): 170%
- peak-to-trough plasma concentration ratio ([1]; steady-state, once daily dosing): approximately 1.5
- fraction unbound (Plasma protein binding): 0.02 to 0.03
- metabolized through CYP3A4 (CYP3A4 [2]): 18%
- metabolized through CYP2C9 (CYP2C9 [3]): 8%
- inhibition of CYP1A2 (CYP1A2): does not inhibit
- inhibition of CYP2C8 (CYP2C8): does not inhibit
- inhibition of CYP2D6 (CYP2D6): not an inhibitor
- inhibition of CYP2C9 (CYP2C9 [4]): not an inhibitor
- inhibition of CYP2C19 (CYP2C19 [5]): not an inhibitor
- inhibition of P-gp (P-gp): does not inhibit
- inhibition of BSEP (BSEP): does not inhibit
- inhibition of MATE1 (MATE1): does not inhibit
- inhibition of MATE2-K (MATE2-K): does not inhibit
- inhibition of OATPs [6]: does not inhibit
- inhibition of OATs [7]: does not inhibit
- embryo-fetal findings (pregnant rats [8]; pregnant rats, oral, period of organogenesis, high dose group (1.5 mg/kg/day)): increases in post-implantation loss, decreases in mean fetal body weight, reductions in fetal ossification of bones, and fetal malformations (visceral and skeletal) were observed
- Plasma exposure (AUC) at the no-effect dose for embryo-fetal development vs exposure in humans at the MRHD (pregnant rats [8]; rats): 0.3 times
- embryo-fetal findings (pregnant rabbits; pregnant rabbits, oral, period of organogenesis, doses of 1.2 mg/kg/day and higher): fetal malformations (visceral and skeletal) were increased
- Plasma exposure (AUC) at the no-effect dose for embryo-fetal development vs exposure in humans at the MRHD (pregnant rabbits; rabbits): 0.4 times
- no-observed-adverse-effect level (NOAEL) (pregnant rats [9]; pre/postnatal development study, rats, highest dosage level tested): 1.5 mg/kg/day
- effects in dams or offspring (pregnant rats [9]; pregnant rats, oral 0.3 to 1.5 mg/kg/day, gestation Day 6 to lactation/post-partum Day 20): No adverse effects were observed
- genotoxicity [10]: not genotoxic
- events after overdose ([11]; one subject, single dose of 144 mg, subject recovered): serious adverse events including vasovagal reaction, hypotension, and asystole
- outcome after accidental ingestion ([11]; three 15 mg capsules): infant death
- participants experiencing 20% or greater reductions in LVEF (healthy subjects): 3 of 8
- solubility (Solubility; DMSO and NMP): freely soluble
- solubility (Solubility; methanol and ethanol): sparingly soluble
- solubility (Solubility; water and aqueous buffers at pH 2-10): practically insoluble
- Clinical Impact on mavacamten exposure (CYP2C19, CYP3A4): moderate to strong CYP3A4 inducer decreases mavacamten exposure,
- effect on mavacamten Cmax (CYP2C19 [12]): no effect
- mavacamten AUCinf increase (CYP2C19 [12]): 48%
- mavacamten AUCinf increase (CYP3A4 [13]): 15%
- mavacamten Cmax increase (CYP3A4 [13]): 52%
